Source: patent US8613914B2, “Peptidomimetic sulfamide compounds and antiviral uses thereof” (Novartis AG, priority 2009, dated 2013)

Biological target: HCV NS3-4A serine protease (full-length NS3-4A protein) (Hepatitis C virus genotype 1a (isolate 1) (HCV), UniProt P26664)
Test: HCV NS3-4A protease assay
Type: biochemical, HCV genotype 1a
Conditions: strain HCV-1, fluorogenic peptide substrate, read-out: Protease assay Ex. 12 IC50
Method: The inhibitory activity of certain compounds of Table A against HCV NS3-4A serine protease is determined in a homogenous assay using the full-length NS3-4A protein (genotype 1a, strain HCV-1) and a commercially available internally-quenched fluorogenic peptide substrate as described by Taliani, M., et al. 1996 Anal. Biochem. 240:60-67, which is incorporated by reference in its entirety.

Sequence of HCV NS3-4A serine protease (full-length NS3-4A protein) (P26664 1027-1657): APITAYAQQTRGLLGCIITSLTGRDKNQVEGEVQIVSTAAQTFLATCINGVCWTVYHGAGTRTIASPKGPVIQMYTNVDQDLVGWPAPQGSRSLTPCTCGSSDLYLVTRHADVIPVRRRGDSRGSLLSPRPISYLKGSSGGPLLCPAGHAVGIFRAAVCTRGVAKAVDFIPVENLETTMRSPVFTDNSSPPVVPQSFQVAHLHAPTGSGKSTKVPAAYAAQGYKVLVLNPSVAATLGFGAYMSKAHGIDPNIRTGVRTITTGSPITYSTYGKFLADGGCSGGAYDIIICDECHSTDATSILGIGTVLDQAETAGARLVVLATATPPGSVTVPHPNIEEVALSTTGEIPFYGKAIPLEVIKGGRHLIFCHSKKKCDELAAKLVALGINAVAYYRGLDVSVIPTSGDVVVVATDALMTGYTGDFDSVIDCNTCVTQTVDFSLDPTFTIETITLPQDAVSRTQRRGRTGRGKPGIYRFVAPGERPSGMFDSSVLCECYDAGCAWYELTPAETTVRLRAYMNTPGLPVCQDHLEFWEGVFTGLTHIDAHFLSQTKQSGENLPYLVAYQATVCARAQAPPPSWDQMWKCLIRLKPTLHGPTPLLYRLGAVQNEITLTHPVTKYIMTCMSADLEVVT
Sequence of HCV NS3-4A serine protease (full-length NS3-4A protein) (P26664 1658-1711 partner): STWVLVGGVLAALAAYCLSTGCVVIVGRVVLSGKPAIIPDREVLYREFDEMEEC

Q: How did the IC50 turn out when `C=C[C@@H]1C[C@]1(NC(=O)[C@@H]1C[C@@]2(CN1C(=O)[C@@H](NC(=O)[C@@H](NC(=O)[C@@H]1CCCCN1C(C)C)C1CCCCC1)C(C)(C)C)C(C)(C)C21CCC1)C(=O)NS(=O)(=O)N1CC[C@@H](F)C1` [Compound 45, (5R,8S)-7-[(2S)-2-{[(2S)-2-cyclohexyl-2-({[(2S)-1-isopropylpiperidin-2-yl]carbonyl}amino)acetyl]amino}-3,3-dimethylbutanoyl]-N-[(1R,2S)-1-({[(3R)-3-fluoropyrrolidin-1-yl]sulfonyl}carbamoyl)-2-vinylcyclopropyl]-10,10-dimethyl-7-azadispiro[3.0.4.1]decane-8-carboxamide] was run?
A: 1 nM

Q: How did the IC50 turn out when `C=C[C@@H]1C[C@]1(NC(=O)[C@@H]1C[C@@]2(CN1C(=O)[C@@H](NC(=O)[C@@H](NC(=O)[C@@H]1CCCN1CC(F)F)C1CCCCC1)C1CCOCC1)C(C)(C)C21CCC1)C(=O)NS(=O)(=O)N1CCCC1` [Compound 72, (5R,8S)-7-[(2S)-2-{[(2S)-2-cyclohexyl-2-({[(2S)-1-(2,2-difluoroethyl)pyrrolidin-2-yl]carbonyl}amino)acetyl]amino}-2-(tetrahydro-2H-pyran-4-yl)acetyl]-10,10-dimethyl-N-{(1R,2S)-1-[(pyrrolidin-1-ylsulfonyl)carbamoyl]-2-vinylcyclopropyl}-7-azadispiro[3.0.4.1]decane-8-carboxamide] was run?
A: 70 nM

Q: How did the IC50 turn out when `C=C[C@@H]1C[C@]1(NC(=O)[C@@H]1C[C@@]2(CN1C(=O)[C@@H](NC(=O)[C@@H](NC(=O)[C@@H]1CCCCN1C(C)C)C(C)C)C(C)(C)C)C(C)(C)C21CCC1)C(=O)NS(=O)(=O)N(CC)CC` [Compound 122, (5R,8S)-N-[(1R,2S)-1-{[(diethylamino)sulfonyl]carbamoyl}-2-vinylcyclopropyl]-7-[(2S)-2-{[(2S)-2-({[(2S)-1-isopropylpiperidin-2-yl]carbonyl}amino)-3-methylbutanoyl]amino}-3,3-dimethylbutanoyl]-10,10-dimethyl-7-azadispiro[3.0.4.1]decane-8-carboxamide] was run?
A: 1.4 nM

Q: `C=C[C@@H]1C[C@]1(NC(=O)[C@@H]1C[C@@]2(CN1C(=O)[C@@H](NC(=O)[C@@H](NC(=O)CN1CCc3ccccc3C1)C1CCCCC1)C(C)(C)C)C(C)(C)C21CCC1)C(=O)NS(=O)(=O)N1CCCC1` [Compound 177, (5R,8S)-7-[(2S)-2-({cyclohexyl[(3,4-dihydroisoquinolin-2(1H)-ylacetyl)amino]acetyl}amino)-3,3-dimethylbutanoyl]-10,10-dimethyl-N-{(1R,2S)-1-[(pyrrolidin-1-ylsulfonyl)carbamoyl]-2-vinylcyclopropyl}-7-azadispiro[3.0.4.1]decane-8-carboxamide] was tested. Which IC50 did it give?
A: 25 nM

Q: `[2H]C([2H])([2H])N(C([2H])([2H])[2H])S(=O)(=O)NC(=O)[C@@]1(NC(=O)[C@@H]2C[C@@]3(CN2C(=O)[C@@H](NC(=O)[C@@H](NC(=O)[C@@H]2CCCCN2C(C)C)C2CCCCC2)C(C)(C)C)C(C)(C)C32CCC2)C[C@H]1C=C` [Compound 148, (5R,8S)-7-[(2S)-2-{[(2S)-2-cyclohexyl-2-({[(2S)-1-isopropylpiperidin-2-yl]carbonyl}amino)acetyl]amino}-3,3-dimethylbutanoyl]-N-[(1R,2S)-1-{[(d6-dimethylamino)sulfonyl]carbamoyl}-2-vinylcyclopropyl]-10,10-dimethyl-7-azadispiro[3.0.4.1]decane-8-carboxamide-d6] was tested. Which IC50 did it give?
A: 0.8 nM

Q: `C=C[C@@H]1C[C@]1(NC(=O)[C@@H]1C[C@@]2(CN1C(=O)[C@@H](NC(=O)[C@@H](NC(=O)c1cnc(C)cn1)C1CCCCC1)C(C)(C)C)C(C)(C)C21CCC1)C(=O)NS(=O)(=O)N1CCCC1` [Compound 199, (5R,8S)-7-{(2S)-2-[(cyclohexyl{[(5-methylpyrazin-2-yl)carbonyl]amino}acetyl)amino]-3,3-dimethylbutanoyl}-10,10-dimethyl-N-{(1R,2S)-1-[(pyrrolidin-1-ylsulfonyl)carbamoyl]-2-vinylcyclopropyl}-7-azadispiro[3.0.4.1]decane-8-carboxamide] was tested. Which IC50 did it give?
A: 14 nM

Q: `C=C[C@@H]1C[C@]1(NC(=O)[C@@H]1C[C@@]2(CN1C(=O)[C@@H](NC(=O)[C@@H](NC(=O)[C@@H]1CCCN1CC)C1(C)CCOCC1)C1(C)CCCCC1)C(C)(C)C21CCC1)C(=O)NS(=O)(=O)N(CC)CC` [Compound 157, (5R,8S)-N-[(1R,2S)-1-{[(diethylamino)sulfonyl]carbamoyl}-2-vinylcyclopropyl]-7-[(2S)-2-{[(2S)-2-({[(2S)-1-ethylpyrrolidin-2-yl]carbonyl}amino)-2-(4-methyltetrahydro-2H-pyran-4-yl)acetyl]amino}-2-(1-methylcyclohexyl)acetyl]-10,10-dimethyl-7-azadispiro[3.0.4.1]decane-8-carboxamide] was tested. Which IC50 did it give?
A: 1 nM

Q: How did the IC50 turn out when `C=C[C@@H]1C[C@]1(NC(=O)[C@@H]1C[C@@]2(CN1C(=O)[C@@H](NC(=O)[C@@H](NC(=O)[C@@H]1CCCCN1C1CCCC1)C1CCCCC1)C(C)(C)C)C(C)(C)C21CCC1)C(=O)NS(=O)(=O)N(CC)CC` [Compound 64, (5R,8S)-7-[(2S)-2-{[(2S)-2-cyclohexyl-2-({[(2S)-1-cyclopentylpiperidin-2-yl]carbonyl}amino)acetyl]amino}-3,3-dimethylbutanoyl]-N-[(1R,2S)-1-{[(diethylamino)sulfonyl]carbamoyl}-2-vinylcyclopropyl]-10,10-dimethyl-7-azadispiro[3.0.4.1]decane-8-carboxamide] was run?
A: 2 nM

Q: `C=C[C@@H]1C[C@]1(NC(=O)[C@@H]1C[C@@]2(CN1C(=O)[C@@H](NC(=O)[C@@H](NC(=O)[C@@H]1CCCN1CC)C1CCCCC1)C(C)(C)C)C(C)(C)C21CCC1)C(=O)NS(=O)(=O)N(C)CCC` [Compound 98, (5R,8S)-7-[(2S)-2-{[(2S)-2-cyclohexyl-2-({[(2S)-1-ethylpyrrolidin-2-yl]carbonyl}amino)acetyl]amino}-3,3-dimethylbutanoyl]-10,10-dimethyl-N-[(1R,2S)-1-({[methyl(propyl)amino]sulfonyl}carbamoyl)-2-vinylcyclopropyl]-7-azadispiro[3.0.4.1]decane-8-carboxamide] was tested. Which IC50 did it give?
A: 7 nM

Q: For `C=C[C@@H]1C[C@]1(NC(=O)[C@@H]1C[C@@]2(CN1C(=O)[C@@H](NC(=O)[C@@H](NC(=O)[C@@H]1CCCCN1C(C)C)C1CCCCC1)C(C)(C)C)C(C)(C)C21CCC1)C(=O)NS(=O)(=O)N(CC)CC(F)F` [Compound 155, (5R,8S)-7-[(2S)-2-{[(2S)-2-cyclohexyl-2-({[(2S)-1-isopropylpiperidin-2-yl]carbonyl}amino)acetyl]amino}-3,3-dimethylbutanoyl]-N-[(1R,2S)-1-({[(2,2-difluoroethyl)(ethyl)amino]sulfonyl}carbamoyl)-2-vinylcyclopropyl]-10,10-dimethyl-7-azadispiro[3.0.4.1]decane-8-carboxamide], which IC50 is on record?
A: 4.4 nM

Q: `C=C[C@@H]1C[C@]1(NC(=O)[C@@H]1C[C@@]2(CN1C(=O)[C@@H](NC(=O)[C@@H](NC(=O)[C@@H]1CCCCN1C)C1CCCCC1)C(C)(C)C)C(C)(C)C21CCC1)C(=O)NS(=O)(=O)N(C)CC` [Compound 93, (5R,8S)-7-[(2S)-2-{[(2S)-2-cyclohexyl-2-({[(2S)-1-methylpiperidin-2-yl]carbonyl}amino)acetyl]amino}-3,3-dimethylbutanoyl]-N-[(1R,2S)-1-({[ethyl(methyl)amino]sulfonyl}carbamoyl)-2-vinylcyclopropyl]-10,10-dimethyl-7-azadispiro[3.0.4.1]decane-8-carboxamide] was tested. Which IC50 did it give?
A: 2 nM

Q: For `C=C[C@@H]1C[C@]1(NC(=O)[C@@H]1C[C@@]2(CN1C(=O)[C@@H](NC(=O)[C@@H](NC(=O)c1cc(CC)nn1C)C1CCCCC1)C(C)(C)C)C(C)(C)C21CCC1)C(=O)NS(=O)(=O)N1CCCC1` [Compound 185, (5R,8S)-7-{(2S)-2-[(cyclohexyl{[(3-ethyl-1-methyl-1H-pyrazol-5-yl)carbonyl]amino}acetyl)amino]-3,3-dimethylbutanoyl}-10,10-dimethyl-N-{(1R,2S)-1-[(pyrrolidin-1-ylsulfonyl)carbamoyl]-2-vinylcyclopropyl}-7-azadispiro[3.0.4.1]decane-8-carboxamide], which IC50 is on record?
A: 40 nM

Q: With `C=C[C@@H]1C[C@]1(NC(=O)[C@@H]1C[C@@]2(CN1C(=O)[C@@H](NC(=O)[C@@H](NC(=O)[C@H]1CCCCN1C(C)C)C1CCCCC1)C(C)(C)C)C(C)(C)C21CCC1)C(=O)NS(=O)(=O)N1CCCCC1` [Compound 115, (5R,8S)-7-[(2S)-2-{[(2S)-2-cyclohexyl-2-({[(2R)-1-isopropylpiperidin-2-yl]carbonyl}amino)acetyl]amino}-3,3-dimethylbutanoyl]-10,10-dimethyl-N-{(1R,2S)-1-[(piperidin-1-ylsulfonyl)carbamoyl]-2-vinylcyclopropyl}-7-azadispiro[3.0.4.1]decane-8-carboxamide] as the compound, how does the IC50 read?
A: 4.5 nM

Q: Which IC50 does the source give for `C=C[C@@H]1C[C@]1(NC(=O)[C@@H]1C[C@@]2(CN1C(=O)[C@@H](NC(=O)[C@@H](NC(=O)[C@@H]1CCCCN1C(C)C)C1CCCCC1)C1CCOCC1)C(C)(C)C21CCC1)C(=O)NS(=O)(=O)N(CC)CC` [Compound 84, (5R,8S)-7-[(2S)-2-{[(2S)-2-cyclohexyl-2-({[(2S)-1-isopropylpiperidin-2-yl]carbonyl}amino)acetyl]amino}-2-(tetrahydro-2H-pyran-4-yl)acetyl]-N-[(1R,2S)-1-{[(diethylamino)sulfonyl]carbamoyl}-2-vinylcyclopropyl]-10,10-dimethyl-7-azadispiro[3.0.4.1]decane-8-carboxamide] here?
A: 6 nM

Q: With `C=C[C@@H]1C[C@]1(NC(=O)[C@@H]1C[C@@]2(CN1C(=O)[C@@H](NC(=O)[C@@H](NC(=O)[C@@H]1CCCCN1C(C)C)C1CCCCC1)C(C)(C)C)C(C)(C)C21CCC1)C(=O)NS(=O)(=O)N(C)CC(F)F` [Compound 83, (5R,8S)-7-[(2S)-2-{[(2S)-2-cyclohexyl-2-({[(2S)-1-isopropylpiperidin-2-yl]carbonyl}amino)acetyl]amino}-3,3-dimethylbutanoyl]-N-[(1R,2S)-1-({[(2,2-difluoroethyl)(methyl)amino]sulfonyl}carbamoyl)-2-vinylcyclopropyl]-10,10-dimethyl-7-azadispiro[3.0.4.1]decane-8-carboxamide] as the compound, how does the IC50 read?
A: 2 nM
